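Tested at 5 concentrations; 48 h exposure; 96-well plates; endpoints linearly interpolated, else capped at highest concentration. Abbreviation: GI50, concentration required for 50% inhibition of growth. TGI: concentration producing complete growth inhibition.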
Assays:
Assay in all cases: NCI anticancer screen, dose series, 48 h
NCI/ADR-RES ovarian = system: NCI/ADR-RES ovarian
T-47D breast = system: T-47D breast
PC-3 prostate = system: PC-3 prostate
DU-145 prostate = system: DU-145 prostate
HS 578T breast = system: HS 578T breast

| Structure (SMILES) | GI50 (NCI/ADR-RES ovarian) | TGI (NCI/ADR-RES ovarian) | GI50 (T-47D breast) | TGI (T-47D breast) | GI50 (PC-3 prostate) | TGI (PC-3 prostate) | GI50 (DU-145 prostate) | TGI (DU-145 prostate) | GI50 (HS 578T breast) | TGI (HS 578T breast) |
| --- | --- | --- | --- | --- | --- | --- | --- | --- | --- | --- |
| Cc1ccc(C(=O)c2oc3ccc4c(C)cc(=O)oc4c3c2C)cc1 | 10.2 µM | > 100 µM | 50.1 µM | > 100 µM | 5.64 µM | > 100 µM | 9.7 µM | > 100 µM | 19.4 µM | > 100 µM |
| O=C(Oc1ccc(O)c2c(=O)n3c(cc12)[nH]c1ccccc13)c1ccccc1 | 18.7 µM | 55 µM | 9.32 µM | 47.2 µM | 18.2 µM | 56 µM | 30.5 µM | > 100 µM | 41.1 µM | > 100 µM |
| COc1ccc(/C=C/c2cc(OC)c(OC)c(OC)c2)cc1NC(=O)/C=C/c1ccc(F)cc1 | 1.19 µM | 6.38 µM | 5.51 µM | > 100 µM | 1.98 µM | > 100 µM | 4.05 µM | > 40.5 µM | 3.79 µM | > 100 µM |
| CC1=CSC2=NC(c3ccc(Cl)c(Cl)c3)=CC(c3ccc(Cl)cc3)N12 (stereo not drawn) | > 100 µM | > 100 µM | > 100 µM | > 100 µM | > 100 µM | > 100 µM | > 100 µM | > 100 µM | > 100 µM | > 100 µM |
| CN1CC(c2ccccc2)N(CCCCN2CC(c3ccccc3)N(C)CC2c2ccccc2)CC1c1ccccc1 (stereo not drawn) | – | > 100 µM | – | – | – | > 100 µM | – | > 100 µM | – | > 100 µM |
| COc1cc([C@H](C)c2ccc3ccccc3c2)cc(OC)c1OC | 0.145 µM | > 100 µM | 0.626 µM | > 100 µM | 0.346 µM | > 100 µM | 0.494 µM | > 100 µM | 0.303 µM | > 100 µM |
| CCCCCCC/C=C/[C@H]1O[C@]23C(=O)C[C@@]4(C[C@@H](OC5OC(CO)C(O)C(O)C5O)C[C@@H]4[C@H]2C=C1C)OC3=O (stereo partly drawn) | 6.99 µM | > 33.3 µM | 0.911 µM | 9.69 µM | 3.81 µM | 12.9 µM | 4.59 µM | 9.87 µM | 9.04 µM | > 33.3 µM |
| COc1cc2c(cc1C)NC(=O)/C2=C\c1cc(OC)c(OC)c(OC)c1 | > 100 µM | > 100 µM | > 100 µM | > 100 µM | > 100 µM | > 100 µM | – | – | 58.3 µM | > 100 µM |
| C=CC(=O)N1CCCC(n2nc(-c3ccc(Oc4ccccc4)cc3)c3c(N)ncnc32)C1 (stereo not drawn) | 4.27 µM | 34.8 µM | 2.14 µM | 18.6 µM | 10 µM | 24.2 µM | 1.89 µM | 17.4 µM | 7.66 µM | 45.7 µM |
| CC1(C)C=CC[C@]2(C)[C@H]3CC[C@@H]4[C@H]5[C@H](C(=O)/C=C/c6cccnc6)CC[C@]5(CO)CC[C@@]4(C)[C@]3(C)CC[C@@H]12 | – | – | – | – | 0.505 µM | 1.91 µM | 1.36 µM | 2.69 µM | 1.51 µM | 3.89 µM |
| O=C1c2cc(Br)ccc2-c2c1c1ccc([N+](=O)[O-])cc1c(=O)n2CCCCl | 0.239 µM | 7.9 µM | 0.0144 µM | 18.8 µM | 0.184 µM | > 100 µM | 0.0849 µM | 20.1 µM | 19.5 µM | > 72.5 µM |

From PubChem BioAssay (NCI)
